Reference: patent US20260098025A1, “DIMERIC COMPOUNDS AS INHIBITORS OF GLYCOGEN SYNTHASE 1 (GYS1) AND METHODS OF USE THEREOF” (Maze Therapeutics, Inc., priority 2022, published 2026)
pIC50: −log10 of the molar value.

What follows are molecules tested against T1, recombinant hGYS1/GN1 protein (Homo sapiens, UniProt P13807) (assay: GYS1 coupled enzyme assay (PK/LDH, NADH absorbance at 340 nm)). Settings: geometric mean of at least 2 assay runs on separate days; hGYS1/GN1 50 nM, Glucose-6-Phosphate 1 mM, UDP-Glucose 0.8 mM.
T1 sequence (P13807 1-737): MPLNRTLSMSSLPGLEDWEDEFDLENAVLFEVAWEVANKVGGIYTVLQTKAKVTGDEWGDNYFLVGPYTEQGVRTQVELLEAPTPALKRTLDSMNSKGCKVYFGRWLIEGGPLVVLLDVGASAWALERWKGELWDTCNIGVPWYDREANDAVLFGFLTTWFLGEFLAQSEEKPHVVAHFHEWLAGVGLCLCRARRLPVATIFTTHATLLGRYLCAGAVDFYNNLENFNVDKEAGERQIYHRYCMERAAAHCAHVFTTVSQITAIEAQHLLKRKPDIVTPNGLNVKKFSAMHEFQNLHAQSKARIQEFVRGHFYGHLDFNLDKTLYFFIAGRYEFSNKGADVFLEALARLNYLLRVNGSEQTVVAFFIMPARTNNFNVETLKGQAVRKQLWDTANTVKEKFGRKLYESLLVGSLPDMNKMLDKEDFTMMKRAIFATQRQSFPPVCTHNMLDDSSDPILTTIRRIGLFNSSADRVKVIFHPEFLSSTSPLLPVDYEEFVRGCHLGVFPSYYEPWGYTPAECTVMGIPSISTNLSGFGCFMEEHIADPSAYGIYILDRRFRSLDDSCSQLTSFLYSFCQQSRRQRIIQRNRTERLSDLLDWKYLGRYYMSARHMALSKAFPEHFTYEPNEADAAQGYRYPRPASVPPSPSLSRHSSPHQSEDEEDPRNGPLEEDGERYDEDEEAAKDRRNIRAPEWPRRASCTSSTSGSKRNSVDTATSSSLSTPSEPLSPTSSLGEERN
T1 sequence (P46976 1-350 partner): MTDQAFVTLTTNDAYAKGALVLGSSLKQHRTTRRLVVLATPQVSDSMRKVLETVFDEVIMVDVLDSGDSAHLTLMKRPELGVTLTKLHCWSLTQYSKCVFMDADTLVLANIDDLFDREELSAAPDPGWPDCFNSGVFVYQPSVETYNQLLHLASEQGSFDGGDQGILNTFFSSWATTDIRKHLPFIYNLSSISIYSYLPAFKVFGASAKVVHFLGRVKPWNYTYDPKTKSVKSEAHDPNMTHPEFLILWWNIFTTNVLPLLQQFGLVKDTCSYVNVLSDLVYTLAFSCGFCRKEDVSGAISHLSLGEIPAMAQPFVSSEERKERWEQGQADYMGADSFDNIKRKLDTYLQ
Assay type: biochemical
From the text: The GYS1 coupled enzyme assay is a kinetic biochemical assay that indirectly quantifies the rate of glycogen synthesis by coupling the conversion of GYS1 substrate UDP-glucose into UDP with downstream enzymatic reactions. UDP is released from UDP-glucose as glucose monomers are linked into the growing glycogen strand by GYS1. The coupled assay then proceeds with pyruvate kinase utilizing UDP and phospho(enol)pyruvate (PEP) to form pyruvate. Lactate dehydrogenase then converts pyruvate and NADH into lactate and NAD+. Oxidation of NADH to NAD+ can be measured continuously with a plate reader by quantifying the decrease in NADH absorbance at 340 nm over time.
Compounds that inhibit the hGYS1 enzyme and, subsequently, the downstream conversion of NADH to NAD+, were tested using assay ready plates (black, clear bottom 384 well plates) in a final DMSO reaction volume of 2.5% DMSO. The Assay Buffer contained 50 mM Tris pH 7.5, 2 mM MgCl2, and 100 mM KCl. Fresh stocks of BSA at a final concentration of 0.02% and TCEP at 1 mM were added before splitting buffer into hGYS1 buffer and substrate buffer. To the hGYS1 buffer, rabbit liver glycogen was added at a final concentration of 0.2% glycogen. Glucose-6-Phosphate was added at 1 mM, recombinant hGYS1/GN1 protein was added at 50 nM to the substrate buffer, phosphoenolpyruvate (PEP) was added at 2 mM, UDP-Glucose was added at 0.8 mM, NADH) was added at 0.6 mM, and Pyruvate Kinase/Lactate Dehydrogenase was added at 20 units/mL. The reaction was initiated by mixing hGYS1 buffer and substrate buffer at a 1:1 ratio. Both buffers were plated using a liquid dispensing device with hGYS1 buffer plated first followed by the substrate buffer. Plates were spun briefly to eliminate air bubbles and are immediately read in continuous mode at an absorbance of 340 nm, for 10 time points in one-minute increments, for a total of 10 minutes. The slope from these 10 time points was normalized to the positive and negative control wells. The duplicate % inhibition values are then averaged and fit to a Hill equation for dose response according to the Levenberg-Marquardt algorithm with the Hill equation maximum set to 100 and the minimum set to 0.
The results are shown in Table 2 below, which reports the IC50 of each compound. Unless otherwise specified, IC50 values are reported as the geometric mean of at least 2 assay runs on separate days. Each run represents the average of a technical replicate, where each compound was assayed twice in the same plate. As shown in the table below, the compounds of the present invention are potent inhibitors of human GYS1. A superscript “#” symbol in Table 2 indicates results from a single assay run.
Note that, in Table 2, the compounds are referred to by the corresponding Compound No. in Table 1, which is also referred to in the synthetic examples.

Row | SMILES | pIC50
1 | O=C(N[C@@H](c1ccccc1)c1ccc(C2CC2)c(F)n1)[C@@H]1C[C@@H](F)CN1C(=O)COCCOCCOCCOCCOCCOCC(=O)N1C[C@H](F)C[C@H]1C(=O)N[C@@H](c1ccccc1)c1ccc(C2CC2)c(F)n1 [Compound 5, (2S,2′S,4R,4′R)-1,1′-(3,6,9,12,15,18-hexaoxaicosanedioyl)bis(N-((S)-(5-cyclopropyl-6-fluoropyridin-2-yl)(phenyl)methyl)-4-fluoropyrrolidine-2-carboxamide)] | 8.27
2 | O=C(COCCOCCOCCOCCOCCOCCOCCOCCOCCOCCOCCOCC(=O)N[C@@H](c1ccccc1)c1ccc(C2CC2)c(F)n1)N[C@@H](c1ccccc1)c1ccc(C2CC2)c(F)n1 [Compound 3, N^1,N^38-bis((S)-(5-cyclopropyl-6-fluoropyridin-2-yl)(phenyl)methyl)-3,6,9,12,15,18,21,24,27,30,33,36-dodecaoxaoctatriacontanediamide] | 5.24
3 | O=C(N[C@@H](c1ccccc1)c1ccc(C2CC2)c(F)n1)[C@@H]1C[C@@H](F)CN1C(=O)Cn1cc(COCCOc2cn(CC(=O)N3C[C@H](F)C[C@H]3C(=O)N[C@@H](c3ccccc3)c3ccc(C4CC4)c(F)n3)nn2)nn1 [Compound 8, (2S,4R)-N-((S)-(5-cyclopropyl-6-fluoropyridin-2-yl)(phenyl)methyl)-1-(2-(4-(2-((1-(2-((2S,4R)-2-(((S)-(5-cyclopropyl-6-fluoropyridin-2-yl)(phenyl)methyl)carbamoyl)-4-fluoropyrrolidin-1-yl)-2-oxoethyl)-1H-1,2,3-triazol-4-yl)methoxy)ethoxy)-1H-1,2,3-triazol-1-yl)acetyl)-4-fluoropyrrolidine-2-carboxamide] | 8.28
4 | O=C(N[C@@H](c1ccccc1)c1ccc(C2CC2)c(F)n1)[C@@H]1C[C@@H](F)CN1C(=O)Cn1cc(COCCOCc2cn(CC(=O)N3C[C@H](F)C[C@H]3C(=O)N[C@@H](c3ccccc3)c3ccc(C4CC4)c(F)n3)nn2)nn1 [Compound 7, (2S,2′S,4R,4′R)-1,1′-(2,2′-(((ethane-1,2-diylbis(oxy))bis(methylene))bis(1H-1,2,3-triazole-4,1-diyl))bis(acetyl))bis(N-((S)-(5-cyclopropyl-6-fluoropyridin-2-yl)(phenyl)methyl)-4-fluoropyrrolidine-2-carboxamide)] | 7.95
5 | Cc1cn(CC(=O)N2C[C@H](F)C[C@H]2C(=O)N[C@@H](c2ccccc2)c2ccc(C3CC3)c(F)n2)c(=O)nc1OCCOc1nc(=O)n(CC(=O)N2C[C@H](F)C[C@H]2C(=O)N[C@@H](c2ccccc2)c2ccc(C3CC3)c(F)n2)cc1C [Compound 16, (2S,2′S,4R,4′R)-1,1′-(2,2′-((ethane-1,2-diylbis(oxy))bis(5-methyl-2-oxopyrimidine-4,1(2H)-diyl))bis(acetyl))bis(N-((S)-(5-cyclopropyl-6-fluoropyridin-2-yl)(phenyl)methyl)-4-fluoropyrrolidine-2-carboxamide)] | 7.64

The remaining lines, values ahead:

Row | pIC50 | SMILES
6 | 7.09 | O=C(N[C@@H](c1ccccc1)c1ccc(C2CC2)c(F)n1)[C@@H]1C[C@@H](F)CN1C(=O)COCCOCCOCC(=O)N1C[C@H](F)C[C@H]1C(=O)N[C@@H](c1ccccc1)c1ccc(C2CC2)c(F)n1 [Compound 12, (2S,2′S,4R,4′R)-1,1′-(2,2′-((oxybis(ethane-2,1-diyl))bis(oxy))bis(acetyl))bis(N-((S)-(5-cyclopropyl-6-fluoropyridin-2-yl)(phenyl)methyl)-4-fluoropyrrolidine-2-carboxamide)]
7 | < 5.00 | O=C(N[C@@H](c1ccccc1)c1ccc(C2CC2)c(F)n1)[C@@H]1C[C@@H](F)CN1C(=O)COCCOCCNCCOCCOCCOCC(=O)N1C[C@H](F)C[C@H]1C(=O)N[C@@H](c1ccccc1)c1ccc(C2CC2)c(F)n1 [Compound 13, (2S,2′S,4R,4′R)-1,1′-(3,6,12,15,18-pentaoxa-9-azaicosanedioyl)bis(N-((S)-(5-cyclopropyl-6-fluoropyridin-2-yl)(phenyl)methyl)-4-fluoropyrrolidine-2-carboxamide)]
8 | 5.05 | O=C(N[C@@H](c1ccccc1)c1ccc(C2CC2)c(F)n1)[C@@H]1C[C@@H](F)CN1C(=O)COCCOCC(=O)N1C[C@H](F)C[C@H]1C(=O)N[C@@H](c1ccccc1)c1ccc(C2CC2)c(F)n1 [Compound 4, (2S,2′S,4R,4′R)-1,1′-(2,2′-(ethane-1,2-diylbis(oxy))bis(acetyl))bis(N-((S)-(5-cyclopropyl-6-fluoropyridin-2-yl)(phenyl)methyl)-4-fluoropyrrolidine-2-carboxamide)]
9 | 7.84 | O=C(N[C@@H](c1ccccc1)c1ccc(C2CC2)c(F)n1)[C@@H]1C[C@@H](F)CN1C(=O)COCCOCCOCCOCCOCC(=O)N1C[C@H](F)C[C@H]1C(=O)N[C@@H](c1ccccc1)c1ccc(C2CC2)c(F)n1 [Compound 10, (2S,2′S,4R,4′R)-1,1′-(3,6,9,12,15-pentaoxaheptadecanedioyl)bis(N-((S)-(5-cyclopropyl-6-fluoropyridin-2-yl)(phenyl)methyl)-4-fluoropyrrolidine-2-carboxamide)]
10 | 8.25 | O=C(N[C@@H](c1ccccc1)c1ccc(C2CC2)c(F)n1)[C@@H]1C[C@@H](F)CN1C(=O)COCCOCCOCCOCCOCCOCCOCC(=O)N1C[C@H](F)C[C@H]1C(=O)N[C@@H](c1ccccc1)c1ccc(C2CC2)c(F)n1 [Compound 2, (2S,2′S,4R,4′R)-1,1′-(3,6,9,12,15,18,21-heptaoxatricosanedioyl)bis(N-((S)-(5-cyclopropyl-6-fluoropyridin-2-yl)(phenyl)methyl)-4-fluoropyrrolidine-2-carboxamide)]
11 | 5.12 | O=C(COCCOCCOCCOCCOCCOCCOCCOCCOCCOCCOCC(=O)N[C@@H](c1ccccc1)c1ccc(C2CC2)c(F)n1)N[C@@H](c1ccccc1)c1ccc(C2CC2)c(F)n1 [Compound 6, N^1,N^35-bis((S)-(5-cyclopropyl-6-fluoropyridin-2-yl)(phenyl)methyl)-3,6,9,12,15,18,21,24,27,30,33-undecaoxapentatriacontanediamide]
12 | 7.70 | O=C(N[C@@H](c1ccccc1)c1ccc(C2CC2)c(F)n1)[C@@H]1C[C@@H](F)CN1C(=O)Cn1cc(OCCOc2cn(CC(=O)N3C[C@H](F)C[C@H]3C(=O)N[C@@H](c3ccccc3)c3ccc(C4CC4)c(F)n3)nn2)nn1 [Compound 9, (2S,2′S,4R,4′R)-1,1′-(2,2′-((ethane-1,2-diylbis(oxy))bis(1H-1,2,3-triazole-4,1-diyl))bis(acetyl))bis(N-((S)-(5-cyclopropyl-6-fluoropyridin-2-yl)(phenyl)methyl)-4-fluoropyrrolidine-2-carboxamide)]
